# Where two headings read alike, the source gives them in different places.
# Assays:
# [1] = test system: Kip1 mRNA; test: Kip1 mRNA by Northern blot in 5 L cells; format: cell-based, rat
# [2] = test system: cyclins D1, D2, D3 and E, cdks 2 and 4; test: Western blot of G1-phase cyclins and cdks in 5 L cells; format: cell-based, rat; details: 24-hour treatment, FIG. 2A
# Description: (§1) After it had been found by introductory experiments that the effect of dioxin on the cell cycle required gene expression which was continuous and induced, experiments were carried out to investigate the Ah receptor-dependent, cell cycle-regulating genes by characterizing biochemical changes in the course of the cell cycle (Lees, E., Curr. Opin. Cell Biol. 7, 773 (1995); Morgan, D. O., Nature 374, 131 (1995). The levels of cyclins D and E, which are involved in the G1-S transition in the cell cycle, as well as their associated cyclin-dependent kinases (cdks 2 and 4), were not reduced by dioxin treatment (see FIG. 2A). […]
# (§2) Biochemical properties of G1-phase cyclin/cdk complexes were analysed using 30-60%-confluent, asynchronous cell cultures which, apart from those in section E, had been subjected to a 24-hour treatment with TCDD or 0.1% of the DMSO solvent. The quantities of G1-phase cyclins D1, D2, D3 and E, and also cdks 2 and 4(A) were determined by Western blot in extracts which had been prepared by lysis using a mild detergent (Matsushime, H. et al. Mol. Cell Biol. 14, 2066 (1994)). Cyclin E-dependent histone H1 kinase activity (B) was measured in an immune complex kinase assay (Matsushime, loc. cit.) following precipitation with an anti-cyclin E antibody (lanes 1 and 2) or a corresponding anti-AP-2 antibody as the negative control (lanes 3 and 4). […]
# [3] = test system: cyclin E-associated histone H1 kinase; test: Cyclin E-dependent histone H1 kinase activity, immune complex kinase assay; format: cell-based, rat; details: 5 L cells, 24-hour treatment, FIG. 2B
# Description: as §1, §2
# [4] = test system: p27Kip1; test: p27Kip1 protein level by Western blot in 5 L cells and BP8 derivatives; format: cell-based, rat
# Description: After it had been found by introductory experiments that the effect of dioxin on the cell cycle required gene expression which was continuous and induced, experiments were carried out to investigate the Ah receptor-dependent, cell cycle-regulating genes by characterizing biochemical changes in the course of the cell cycle (Lees, E., Curr. Opin. Cell Biol. 7, 773 (1995); Morgan, D. O., Nature 374, 131 (1995). The levels of cyclins D and E, which are involved in the G1-S transition in the cell cycle, as well as their associated cyclin-dependent kinases (cdks 2 and 4), were not reduced by dioxin treatment (see FIG. 2A). The levels of cyclins D2 and D3 were even raised, presumably because the cells are frozen in a state which is per se associated with a high level of these cyclins. […] The expected accumulation of a slowly migrating form of cdk2, which is presumably not phosphorylated at Thr-160 (Polyak, loc. cit.), was found in the same precipitates (FIG. 2D). […]
# as §2, with “4). The levels of p27Kip1 protein (C) were determined by Western blot in whole-cell extracts prepared from TCDD-treated cultures of AhR-expressing 5 L wild-type cells, their AhR-deficient BP8AhR-derivatives and BP8 cells which were expressing AhR ectopically (BP8AhR+) (Weiss, loc. cit.).” for “4).”
# [5] = test system: p18-Ink and p21-Cip1; test: Levels of other cdk inhibitors in 5 L cells; format: cell-based, rat
# Description: After it had been found by introductory experiments that the effect of dioxin on the cell cycle required gene expression which was continuous and induced, experiments were carried out to investigate the Ah receptor-dependent, cell cycle-regulating genes by characterizing biochemical changes in the course of the cell cycle (Lees, E., Curr. Opin. Cell Biol. 7, 773 (1995); Morgan, D. O., Nature 374, 131 (1995). The levels of cyclins D and E, which are involved in the G1-S transition in the cell cycle, as well as their associated cyclin-dependent kinases (cdks 2 and 4), were not reduced by dioxin treatment (see FIG. 2A). The levels of cyclins D2 and D3 were even raised, presumably because the cells are frozen in a state which is per se associated with a high level of these cyclins. […] The expected accumulation of a slowly migrating form of cdk2, which is presumably not phosphorylated at Thr-160 (Polyak, loc. cit.), was found in the same precipitates (FIG. 2D). […] The rise in the level of the p27Kip1 protein was accompanied by a fourfold induction of Kip1 mRNA (FIG. 2E, lanes 1 and 2).
# [6] = test system: p27Kip1 associated with cyclin E; test: Immunocoprecipitation with anti-cyclin E antibody, Western blot of p27Kip1; format: cell-based, rat; details: 5 L cells, immunocoprecipitation analysis, FIG. 2D
# Description: as §1, §2
# [7] = test system: 5 L cells; test: Cell cycle distribution by flow cytometry in transfected 5 L cells; format: cell-based, rat
# Description: Genetic indications of a causal role for Kip1 induction in dioxin-induced cell cycle retardation were obtained by transiently expressing a Kip1 antisense RNA in order to inactivate Kip1. Coexpression of green fluorescent protein (GFP, Heim, A. B. et al., Nature 373, 663 (1997)) enabled flow cytometry to be used to detect efficiently transfected cells (FIG. 3A). […] When Kip1 antisense RNA was expressed together with GFP, the TCDD effect on cell cycle distribution was interrupted in the efficiently transfected subpopulation of cells (FIG. 3B, third row). In the non-transfected subpopulation from the same cell culture, TCDD retarded the progress of the cell cycle in the expected manner (FIG. 3B, last row). In this context, it is to be noted that the electroporation reduced sensitivity to dioxin such that the observed effects on the cell cycle were less pronounced than in non-transfected cells, for example 1.5-2-fold as compared with 3-4-fold in non-electroporated cells (Weiss, loc. cit.).
# 5 L cells were transiently cotransfected with expression vectors for a Kip1 antisence RNA and GFP (part B, lower panel) or with the empty expression vector and GFP (part B, upper panel). 32 h after the transfection, the cells were treated with 1 nM TCDD or 0.1% DMSO solvent, as the control, and harvested, for the analysis by flow cytometry 18 h later, using trypsin. (A) The GFP-expressing subpopulation of transfected cells (thick line) was identified by means of a high green fluorescence (GFP) as compared with untransfected cells (thin line). (B) Cell cycle profiles were determined by staining with H33258 and analysed individually for efficiently transfected (approx. 5%), green-fluorescing subpopulations (rows 1 and 3) and untransfected subpopulations (rows 2 and 4) in the presence of 1 nM TCDD (right-hand panels) or 0.1% DMSO solvent (left-hand panels).
# [8] = test system: p27Kip1; test: p27Kip1 protein by Western blot in foetal thymus organ culture thymocytes; format: cell-based, mice; details: 2 days of FTOC, 1 nM, compared with solvent cultures
# Description: An important target for dioxin toxicity is the thymus, which suffers an AhR-dependent atrophy (Poland, A. et al., Annu. Rev. Pharmacol. Toxicol. 22, 517 (1982); Fernandez-Salguero, P. et al., Science 268, 722 (1995)). Foetal thymus organ culture (FTOC) provides a useful model for studying dioxin activities (Lai, Z. W. et al., Mol. Pharmacol. 52, 30 (1997), and the literature references which are cited therein). After only 2 days of FTOC, a 3-fold induction of Kip1 protein was found in thymocytes which had been prepared from TCDD-treated cultures as compared with cultures which had only been exposed to the solvent (FIG. 4A). This was accompanied by a decrease in the proliferation of the thymocytes, as shown by a reduced incorporation of ^3H-thymidine into the thymocyte DNA (75±7%) and a drop, from 32±3% down to 24±1%, in the number of cells in the S and G2 phases of the cell cycle (a representative example from 3 similar experiments is shown in FIG. 4B). […]
# Foetal thymus glands from C57B16 mice were explanted after 14.5 days of pregnancy and cultured for 2 days in the presence of 1 nM TCDD or 0.1% DMSO solvent prior to preparing thymocytes. p27Kip1 protein (A) was determined by Western blot in 10^5 thymocytes. […] The cell cycle distribution of the total lymphocyte population (B) was determined by means of flow cytometry following DNA staining with H33258 bisbenzimide dye.
# [9] = test system: thymocytes; test: Thymocyte proliferation and cell cycle distribution in foetal thymus organ culture; format: cell-based, mice; details: for % in G2/S: 2 days of culture, mean ± S.D., 3 experiments
# Description: An important target for dioxin toxicity is the thymus, which suffers an AhR-dependent atrophy (Poland, A. et al., Annu. Rev. Pharmacol. Toxicol. 22, 517 (1982); Fernandez-Salguero, P. et al., Science 268, 722 (1995)). Foetal thymus organ culture (FTOC) provides a useful model for studying dioxin activities (Lai, Z. W. et al., Mol. Pharmacol. 52, 30 (1997), and the literature references which are cited therein). After only 2 days of FTOC, a 3-fold induction of Kip1 protein was found in thymocytes which had been prepared from TCDD-treated cultures as compared with cultures which had only been exposed to the solvent (FIG. 4A). This was accompanied by a decrease in the proliferation of the thymocytes, as shown by a reduced incorporation of ^3H-thymidine into the thymocyte DNA (75±7%) and a drop, from 32±3% down to 24±1%, in the number of cells in the S and G2 phases of the cell cycle (a representative example from 3 similar experiments is shown in FIG. 4B). While the proliferation rate in all the early thymocyte subpopulations was reduced independently of the status of CD4 or CD8 expression (Table 1), the effect was more strongly pronounced in the predominantly immature, double negative subpopulation and in a small CD4low/+/CD8-subpopulation.
# Foetal thymus glands from C57B16 mice were explanted after 14.5 days of pregnancy and cultured for 2 days in the presence of 1 nM TCDD or 0.1% DMSO solvent prior to preparing thymocytes. p27Kip1 protein (A) was determined by Western blot in 10^5 thymocytes. Uniform loading of the gel was ensured by probing the blots once again with an Erk1 antibody (one of three representative examples is shown). The cell cycle distribution of the total lymphocyte population (B) was determined by means of flow cytometry following DNA staining with H33258 bisbenzimide dye.
# Thymocytes from foetal thymus glands were collected after 2 days of culture in the presence or absence of TCDD and analysed for their cell cycle distribution. The values are mean values±S.D. from 3 independent experiments.
# [10] = test system: 5 L cells; test: Cell cycle progress by Rb protein phosphorylation, Western blot, synchronised 5 L cells; format: cell-based, rat; details: 1 nM, 2 h before analysis, 8 h after serum stimulation, FIG. 1
# Description: 5 L cells were frozen in their growth by being fasted in serum-free medium for 24 h and synchronously released from the block in the cell cycle by the addition of serum. The progress in the cell cycle was monitored by Western blot analysis, by determining the accumulation of phosphorylated Rb protein (upper arrow) in relation to hypophosphorylated Rb protein (lower arrow) 8 h after stimulating with the serum. 2 h before the analysis, the cells were treated with 1 nM TCDD, the transcription inhibitor actinomycin D (5 μg/ml) or both these compounds. The culture conditions have been described previously (Weiss, C. et al. Exp. Cell Res. 226, 154 (1996)), and extracts were prepared by lysing the cells in denaturing SDS sample buffer.
# [11] = test system: 5 L cells; details: non-electroporated cells (Weiss, loc. cit.); cited from earlier work
structure (smiles),measurement,setting,value
C[C@@H]1C[C@@H]([C@H](O)CC2CC(=O)NC(=O)C2)C(=O)[C@@H](C)C1 [cycloheximide],effect on TCDD induction of Kip1 mRNA,"[1]; 30-minute pretreatment, 20 μg/ml, then 4-hour TCDD",had no effect
Clc1cc2c(cc1Cl)Oc1cc(Cl)c(Cl)cc1O2 [TCDD],levels of cyclins D2 and D3,[2],even raised
same,levels of cyclins D and E and associated cyclin-dependent kinases (cdks 2 and 4),[2],not reduced
same,cyclin E-associated histone H1 kinase activity,[3],substantially reduced
same,level of p27Kip1 by Western blot,"[4]; 5 L wild-type cells, exposure from 4 to 72 hours, FIG. 2C",raised in every case
same,upregulation of p27Kip1,[4]; AhR-poor subclone of 5 L cells (BP8-AhR−),not possible to observe dioxin-dependent upregulation
same,induction of p27Kip1,[4]; BP8 subclone with ectopic expression of the AhR (BP8-AhR+),induction was restored
same,p18-Ink and p21-Cip1 levels,[5],not noticeably altered
same,quantities of p27Kip1 associated with cyclin E,[6],increased quantities
same,induction of Kip1 mRNA,"[1]; 5 L cells, 4-hour exposure, FIG. 2E",fourfold
same,breakdown of Kip1 mRNA,[1]; following interruption of transcription by actinomycin D,did not affect
same,relative number of cells in S/G2,"[7]; GFP with empty expression vector, transfected and non-transfected cells, 1 nM, 18 h",reduced
same,TCDD effect on cell cycle distribution,"[7]; efficiently transfected subpopulation expressing Kip1 antisense RNA with GFP, 1 nM",interrupted
same,observed effects on the cell cycle,[7]; electroporated cells,1.5-2 fold
same,progress of the cell cycle,"[7]; non-transfected subpopulation of the Kip1 antisense culture, 1 nM",retarded
same,induction of Kip1 protein in thymocytes,[8],3 fold
same,incorporation of 3H-thymidine into the thymocyte DNA,"[9]; 2 days of FTOC, 1 nM",75±7%
same,% in G2/S,[9]; CD4+/CD8+ thymocytes,35 ± 10%
same,% in G2/S,[9]; CD4+/CD8− thymocytes,24 ± 4%
same,% in G2/S,[9]; CD4−/CD8+ thymocytes,32 ± 6%
same,% in G2/S,[9]; CD4−/CD8− thymocytes,18 ± 2%
same,number of cells in the S and G2 phases of the cell cycle,"[9]; total thymocyte population, 2 days of FTOC, 1 nM",24±1%
same,progress of the cell cycle (phosphorylated versus hypophosphorylated Rb protein),[10],transcription-dependent retardation
same,observed effects on the cell cycle,[11],3-4 fold

# Reference: patent publication US6482610B1, “Method for producing agents for treating tumor diseases and for immunosuppression” (Forschungszentrum Karlsruhe GmbH, priority 1998, dated 2002)
